Measurements from US11840686B2, “Modulation of prekallikrein (PKK) expression” (Ionis Pharmaceuticals, Inc., priority 2013, dated 2023).
Strand notation (5' to 3'): a small letter for the sugar, then the base; units joined by * are phosphorothioate-linked, units joined directly phosphodiester-linked; [ ] holds rarer units or linkages, { } end groups; capitals alone tell only the bases. e = 2'-O-(2-methoxyethyl) (MOE); k = constrained ethyl (cEt); [5mC] = 5-methylcytosine; d = 2'-deoxy (DNA)

Experiments:
[1] = cynomolgus monkey, in vivo, sc, 40 mg/kg
Procedure: (§3) Prior to the study, the monkeys were kept in quarantine for a 30-day period, during which the animals were observed daily for general health. The monkeys were 2-4 years old and weighed between 2 and 4 kg. Ten groups of four randomly assigned male cynomolgus monkeys each were injected subcutaneously with ISIS oligonucleotide or PBS. PBS solution or ISIS oligonucleotides at a dose of 40 mg/kg were administered initially with a loading regimen consisting of four doses on the first week of the study (days 1, 3, 5, and 7), followed by a maintenance regimen consisting of once weekly administration starting on Day 14 (weeks 2 to 13). Subcutaneous injections were performed in clock-wise rotations at 4 sites on the back; one site per dose. The injection sites were delineated by tattoo, while sedated using ketamine, and were separated by a minimum of 3 cm.
To evaluate any effect of ISIS oligonucleotides in cynomolgus monkeys on hematologic parameters, blood samples of approximately 1.2 mL of blood was collected pre-dose and on day 87 or day 88 from each of the available study animals in tubes containing K2-EDTA. Samples were analyzed for red blood cell (RBC) count, white blood cells (WBC) count, platelet count, hemoglobin content and hematocrit, using an ADVIA2120i hematology analyzer (SIEMENS, USA).

[2] = cynomolgus monkey, in vivo, sc, 40 mg/kg; remark: listed apart in the source
Procedure: as §3
To evaluate the effect of ISIS oligonucleotides on kidney function, the monkeys were fasted overnight. Approximately, 1.5 mL of blood samples were collected from all the study groups. Blood was collected in tubes without anticoagulant for serum separation. The tubes were kept at room temperature for a minimum of 90 min and then centrifuged at 3,000 rpm for 10 min. Levels of BUN and creatinine were measured using a Toshiba 120FR NEO chemistry analyzer (Toshiba Co., Japan).

[3] = tested on: PKK protein; assay: PKK protein in cynomolgus monkey plasma by ELISA (Example 8); format: in vivo; conditions: 40 mg/kg sc
Procedure: Approximately 0.9 mL of blood was collected each time from all available animals at pre-dose, day 17, day 31, day 45, day 59, and day 73, and placed in tubes containing 3.2% sodium citrate. The tubes were centrifuged (3000 rpm for 10 min at room temperature) to obtain plasma. PKK protein levels were measured in the plasma by ELISA. The results are presented in Table 52, expressed as percentage inhibition compared to the PBS control levels.

[4] = cynomolgus monkey, in vivo, sc, 40 mg/kg; remark: listed apart in the source
Procedure: as §3
To evaluate any inflammatory effect of ISIS oligonucleotides in cynomolgus monkeys, the monkeys were fasted overnight. Approximately, 1.5 mL of blood samples were collected from all the study groups. Blood was collected in tubes without anticoagulant for serum separation. The tubes were kept at room temperature for a minimum of 90 min and then centrifuged at 3,000 rpm for 10 min. C-reactive protein (CRP), which is synthesized in the liver and which serves as a marker of inflammation, was measured using a Toshiba 120FR NEO chemistry analyzer (Toshiba Co., Japan). Complement C3 was also measured similarly, and the data is presented as a percentage of baseline values.

[5] = cynomolgus monkey, in vivo, sc, 40 mg/kg; remark: listed apart in the source
Procedure: as §3
To evaluate the effect of ISIS oligonucleotides on hepatic function, the monkeys were fasted overnight. Approximately, 1.5 mL of blood samples were collected from all the study groups. Blood was collected in tubes without anticoagulant for serum separation. The tubes were kept at room temperature for a minimum of 90 min and then centrifuged at 3,000 rpm for 10 min. Levels of various liver function markers were measured using a Toshiba 120FR NEO chemistry analyzer (Toshiba Co., Japan).

[6] = cynomolgus monkey, in vivo, sc, 40 mg/kg; remark: listed apart in the source
[7] = tested on: PKK protein; assay: Plasma PKK protein levels in human KLKB1 transgenic mice (Example 7); format: in vivo; conditions: plasma, twice a week for 3 weeks
Procedure: (§1) Transgenic mice containing a 37,390 base pair fragment of the human KLKB1 gene sequence (chromosome 4: position 187148672-187179625, accession no: NC_000004.11) were treated with ISIS antisense oligonucleotides selected from studies described above, which were evaluated for efficacy in this model.
(§2) Groups of transgenic mice were injected subcutaneously twice a week for 3 weeks with 2.5 mg/kg/week, 5.0 mg/kg/week, 10 mg/kg/week or 20 mg/kg/week of ISIS 546232, ISIS 546251, ISIS 546254, ISIS 546343, ISIS 546828, ISIS 547455, ISIS 547457, ISIS 547927, and ISIS 548048. One group of transgenic mice was injected subcutaneously twice a week for 3 weeks with PBS. Mice were euthanized 48 hours after the last dose, and organs and plasma were harvested for further analysis.
Plasma PKK protein levels were evaluated in all groups. Results are presented as percent inhibition of PKK protein, relative to PBS control.

[8] = tested on: PKK mRNA; assay: PKK mRNA in cynomolgus monkey liver (Example 8); format: in vivo; conditions: 40 mg/kg s.c., loading then weekly to week 13; day 87 or 88, 48 h after final dose
Procedure: Cynomolgus monkeys were treated with ISIS antisense oligonucleotides selected from studies described above. Antisense oligonucleotide efficacy and tolerability were evaluated. The human antisense oligonucleotides tested are cross-reactive with the rhesus genomic sequence (GENBANK Accession No. NW_001118167.1 truncated from nucleotides 2358000 to 2391000 and designated herein as SEQ ID NO: 18).
On day 87 or 88, 48 hours after the final dose, RNA was extracted from liver tissue for real-time PCR analysis of PKK using primer probe set RTS3455 (forward sequence […], designated herein as SEQ ID NO: 23; reverse sequence […], designated herein as SEQ ID NO: 24; probe sequence […], designated herein as SEQ ID NO: 25). The results were normalized to the housekeeping gene, Cyclophilin. Results are presented as percent inhibition of PKK mRNA, relative to PBS control.

[9] = tested on: human PKK mRNA; assay: Human PKK mRNA in liver of human KLKB1 transgenic mice (Example 7); format: in vivo; conditions: twice a week for 3 weeks
Procedure: as §1, §2
To evaluate the effect of ISIS oligonucleotides on target reduction, RNA was extracted from liver tissue for real-time PCR analysis of human PKK. Results are presented as percent inhibition of PKK mRNA, relative to PBS control.

[10] = tested on: human PKK mRNA; assay: Antisense inhibition of human PKK mRNA in HepaRG cells, 1,000 nM, MOE/deoxy/cEt oligonucleotides (Example 3); format: cell-based; conditions: HepaRG cells, electroporation with 1,000 nM antisense oligonucleotide, approximately 24 hours, primer probe set RTS3454, relative to untreated control cells
Summary of the method: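 HepaRG cells at 20,000 per well electroporated with 1,000 nM 16-mer MOE/cEt/deoxy gapmers (phosphorothioate, 5-methylcytosine). After about 24 h, PKK mRNA measured by qRT-PCR with primer probe set RTS3454, normalized to RIBOGREEN total RNA. Reported as percent inhibition versus untreated cells.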

[11] = tested on: human PKK mRNA; assay: Dose-dependent antisense inhibition of human PKK in HepaRG cells, 0.11-3.00 uM (Example 6); format: cell-based; conditions: electroporation, approx. 16 hours, relative to untreated control cells
Summary of the method: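 HepaRG cells were electroporated with antisense oligonucleotide at 0.11, 0.33, 1.00 or 3.00 μM. After about 16 h, PKK mRNA was quantified by qRT-PCR with primer probe set RTS3454 and normalized to total RNA by RIBOGREEN. IC50 was derived from the dose series.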

[12] = tested on: human PKK mRNA; assay: Dose-dependent antisense inhibition of human PKK in HepaRG cells, 0.19-5.00 uM (Example 5); format: cell-based
Summary of the method: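 HepaRG cells (20,000/well) were electroporated with antisense oligonucleotide at 0.19, 0.56, 1.67 and 5.00 μM and treated for about 16 hours. PKK mRNA was quantified by qRT-PCR with primer probe set RTS3454, normalised to RIBOGREEN total RNA, and IC50 was derived per oligonucleotide.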

[13] = tested on: human PKK mRNA; assay: Antisense inhibition of human PKK mRNA in HepaRG cells, 5,000 nM (Example 2); format: cell-based; conditions: Table 13; human PKK mRNA in HepaRG cells; 5-10-5 gapmers
Summary of the method: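 HepaRG cells (20,000/well) electroporated with 5,000 nM MOE gapmer (phosphorothioate backbone, 5-methylcytosines) and harvested after ~24 h. PKK mRNA measured by qRT-PCR with primer probe set RTS3454, normalized to RIBOGREEN total RNA; percent inhibition versus untreated cells.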

Row | Substance | % inhibition of PKK protein levels in the transgenic mice relative to the PBS control ([7]; 2.5 mg/kg/week sc) [%] | % inhibition of PKK protein levels in the transgenic mice relative to the PBS control ([7]; 5 mg/kg/week sc) [%] | % inhibition of PKK protein levels in the transgenic mice relative to the PBS control ([7]; 20 mg/kg/week sc) [%] | % inhibition of PKK mRNA in the cynomolgus monkey liver relative to the PBS control [8] [%] | % inhibition of PKK mRNA in the transgenic mice liver relative to the PBS control ([9]; 2.5 mg/kg/week sc) [%] | % inhibition of PKK mRNA in the transgenic mice liver relative to the PBS control ([9]; 5 mg/kg/week sc) [%] | % inhibition of PKK mRNA in the transgenic mice liver relative to the PBS control ([9]; 10 mg/kg/week sc) [%] | % inhibition of PKK mRNA in the transgenic mice liver relative to the PBS control ([9]; 20 mg/kg/week sc) [%] | percent inhibition of PKK mRNA, 0.11 μM [11] [%] | percent inhibition of PKK mRNA, 0.33 μM [11] [%] | percent inhibition of PKK mRNA, 1.00 μM [11] [%] | percent inhibition of PKK mRNA, 3.00 μM [11] [%] | % inhibition of PKK protein levels in the transgenic mice relative to the PBS control ([7]; 10 mg/kg/week sc) [%] | further results
1 | ISIS 547457: antisense oligonucleotide targeting nucleobases 30570-30610 of SEQ ID NO: 10; sequence in a table not shown (AAGGCGATATCATGATTCCC; 5-10-5 MOE gapmer, further chemistry not given here) | – | – | – | – | – | – | – | – | – | – | – | – | – | HCT [1]: 45%; Hemoglobin [1]: 13.8 g/dL; Platelets [1]: 367000 µL⁻¹; RBC [1]: 6.4e+06 µL⁻¹; WBC [1]: 10000 µL⁻¹; Plasma BUN [2]: 24.3 mg/dL; Plasma Creatinine [2]: 1.0 mg/dL; PKK protein level reduction (%) in plasma relative to control levels ([3]; Day 17): 68%; PKK protein level reduction (%) in plasma relative to control levels ([3]; Day 31): 75%; PKK protein level reduction (%) in plasma relative to control levels ([3]; Day 45): 79%; PKK protein level reduction (%) in plasma relative to control levels ([3]; Day 59): 76%; PKK protein level reduction (%) in plasma relative to control levels ([3]; Day 73): 80%; C3 (% of baseline) [4]: 53 % of baseline; CRP [4]: 0.3 mg/dL; ALT [5]: 52 IU/L; AST [5]: 54 IU/L; Albumin [5]: 4.0 g/dL; Urine protein/creatinine ratio [6]: 0.03
2 | 547927 (eA*eT*kG*dG*dT*d[5mC]*d[5mC]*dG*dA*d[5mC]*dA*d[5mC]*dA*k[5mC]*kA*eA) [compound 547927] | 25 | 21 | 80 | 54 | 35 | 52 | 93 | 71 | 56 | 64 | 92 | 88 | – | % inhibition ([10]; experiment of Table 23): 79%
3 | 548048 (e[5mC]*eG*kA*dT*dA*dT*d[5mC]*dA*dT*dG*dA*dT*dT*k[5mC]*k[5mC]*e[5mC]) [compound 548048] | 23 | 70 | 98 | 95 | 7 | 77 | 72 | 80 | 49 | 66 | 86 | 92 | 89 | % inhibition ([10]; experiment of Table 24): 84%
4 | 546828 (eA*e[5mC]*eA*eG*eT*dA*dT*d[5mC]*dA*d[5mC]*dT*dG*dT*dA*d[5mC]*eT*eA*eG*eT*eT) [compound 546828] | 0 | 25 | 93 | 45 | 77 | 62 | 32 | 83 | – | – | – | – | 36 | percent inhibition of PKK at 5.00 μM ([12]; HepaRG cells, electroporation, approximately 16 hours, Table 41): 97%; percent inhibition of PKK at 0.19 0μM ([12]; 0.19 0μM, HepaRG cells, electroporation, approximately 16 hours, Table 41): 0%; percent inhibition of PKK at 0.56 0μM ([12]; 0.56 0μM, HepaRG cells, electroporation, approximately 16 hours, Table 41): 64%; percent inhibition of PKK at 1.67 1μM ([12]; 1.67 1μM, HepaRG cells, electroporation, approximately 16 hours, Table 41): 89%; IC50 ([12]; 4 point dose response, HepaRG cells, Table 41): 200 nM; percent inhibition of PKK at 0.19 μM ([12]; Table 34, 0.19 μM, HepaRG, electroporation, ~16 h): 39%; percent inhibition of PKK at 0.56 μM ([12]; Table 34, 0.56 μM, HepaRG, electroporation, ~16 h): 58%; percent inhibition of PKK at 1.67 μM ([12]; Table 34, 1.67 μM, HepaRG, electroporation, ~16 h): 87%; percent inhibition of PKK at 5.00 μM ([12]; Table 34, HepaRG, electroporation, ~16 h): 93%; IC50 ([12]; Table 34, PKK mRNA, HepaRG, electroporation, ~16 h): 300 nM; % inhibition [13]: 95%
